Source: the SangsterLogP compilation

| logP | SMILES |
| --- | --- |
| 2.76 | CC(=O)OCC1=C(C(=O)O)N2C(=O)C(NC(=O)Cc3ccc(-c4ccc(Cl)cc4)o3)C2SC1 (centres undefined) |
| 0.09 | CC(=O)OCC1=C(C(=O)O)N2C(=O)C(NC(=O)Cc3ccco3)C2SC1 (centres undefined) |
| 2.42 | CC(=O)OCC1=C(C(=O)O)N2C(=O)C(NC(=O)Cc3ccc(-c4ccccc4Cl)o3)C2SC1 (centres undefined) |
| 2.78 | CC(=O)OCC1=C(C(=O)O)N2C(=O)C(NC(=O)Cc3ccc(-c4c(Cl)cccc4Cl)o3)C2SC1 (centres undefined) |
| 2.38 | CC1=C(C(=O)O)N2C(=O)C(NC(=O)Cc3ccc(-c4ccc(Cl)cc4)o3)C2SC1 (centres undefined) |
| -0.13 | CC1=C(C(=O)O)N2C(=O)C(NC(=O)Cc3ccco3)C2SC1 (centres undefined) |
| 0.72 | CC(=O)OCC1=C(C(=O)O)N2C(=O)C(NC(=O)Cc3ccc([N+](=O)[O-])o3)C2SC1 (centres undefined) |
| 1.66 | CC1=C(C(=O)O)N2C(=O)C(NC(=O)Cc3ccc(-c4ccccc4)o3)C2SC1 (centres undefined) |
| 3.6 | CC1=C(C(=O)O)N2C(=O)C(NC(=O)Cc3ccc(-c4c(Cl)cccc4Cl)o3)C2SC1 (centres undefined) |
